Values of other authors as cited in patent US20140011742A1, “Bioactive Peptides and Proteins Containing Bioactive Peptides, their Uses and Processes for Making the Same” (MCGILL UNIVERSITY, priority 2010, published 2014).

Conditions: compared with β-Lg hydrolysates; as previously reported

O=C1O[C@H]([C@@H](O)CO)C(O)=C1O [Vitamin C]
radical scavenging activity: comparable radical scavenging activity
